Experimental data published in patent US20090215893A1, “Parakeratosis inhibitor, pore-shrinking agent,or rough skin preventing/ameliorating agent, and external composition for skin” (Shiseido Company Ltd, priority 2005, published 2009).

What was measured:
[1] = test system: back of a hairless mouse (HR-1), 10 mass % oleic acid applied; assay: Parakeratosis-inhibiting effect tests: oleic acid applied to hairless mouse back, macroscopic rough skin evaluation and parakeratosis value; format: in vivo; details: for Macroscopic evaluation (average of four animals): 100 μL after oleic acid, three days, rough skin score 0.0 (no redness) to 2.0 (control); for Parakeratosis value (average of four animals): tape-stripped stratum corneum, hematoxylin, range 1.0 to 3.0, higher = parakeratosis advanced, control 2.0; for parakeratosis value / parakeratosis-inhibiting effect / rough skin preventing effect, based on stratum corneum peeling and redness: summary of Table 1, concentrations as in Table 1
Protocol: Aqueous solutions (containing 30 mass % of ethanol) of primarily 3 mass % of an α-amino acid derivative or salt thereof were prepared as the evaluation sample. The pH was regulated by hydrochloric acid or sodium hydroxide so as to be 7.0 to 7.5. When sample solubility was low, the solution was prepared accordingly.
100 μL of 10 mass % oleic acid solution (solvent: ethanol) were applied to the back of a hairless mouse (HR-1; Hoshino Laboratory Animals). Then the sample solution (α-amino acid derivative, and the like) was applied 100 μL at a time. This procedure was continued for three days. […] The status of the skin was evaluated in 0.25-point intervals, with skin where the control (control aqueous solution) had been applied being 2.0 and skin where there was no redness being 0.0. At the same time, the stratum corneum at the back of the hairless mouse was peeled off with tape, the nuclei were stained by hematoxylin, and the degree of parakeratosis was observed and evaluated by a parakeratosis value within a range of 1.0 to 3.0 (in 0.25 increments).

[2] = test system: pores of the cheeks of healthy human males; assay: Human pore-shrinking effect (replica assessment of cheek pores); format: in vivo; details: for Replica assessment (average of n = 5): twice a day for one month, pore size rating 1-13, after application minus before application, control 0.3; for pore-shrinking effect: summary of Table 2, concentrations as in Table 2
Protocol: An experiment was conducted whereby a sample was applied twice a day for one month to the cheeks of healthy human males in groups of 5 men each. Aqueous solutions (containing 15 mass % of ethanol) of 3 mass % of the α-amino acid derivative or a salt thereof were prepared as the evaluation sample. The pH was regulated by hydrochloric acid or sodium hydroxide so as to be 7.0 to 7.5. When sample solubility was low, the solution was prepared accordingly. The control was an aqueous 15% ethanol solution. The sample aqueous solution and control aqueous solution were applied to one half of the face at a time.
A replica was collected before and after continuous application, and changes in the shape of the pores at the same site were observed using a three-dimensional laser scanning microscope. The size of the pores was macroscopically evaluated in 13 steps of 1 through 13 (with the pores becoming larger as the numbers became larger), the difference in the ratings before and after application (after application-before application) was calculated, and the efficacy of each sample was studied using this difference as the replica assessment.

[3] = test system: back of hairless mice (HR-1), 10 mass % oleic acid applied; assay: Inhibiting effect against rough skin induced by oleic acid application (transepidermal water loss); format: in vivo; design: ΔTEWL value: unit not given here; details: for ΔTEWL value: three days, average of four animals, rough skin worse as value increases, control 12.0; for ΔTEWL value compared with the control aqueous solution / rough skin preventing/ameliorating effect: summary of Table 3, concentrations as in Table 3
Protocol: In order to investigate the inhibiting effect of α-amino acid derivatives and salts thereof against rough skin induced by oleic acid application, the transepidermal water loss (TEWL value) before and after application was measured, the difference was compared with the control (control aqueous solution), and the effect was determined. Sample preparation and the application method were in accordance with Example 1. The TEWL was determined using the TM210 TEWA Meter (Courage+Khazaka Electronic GmBH).
100 μL of 10 mass % oleic acid (solvent: ethanol) was applied to the back of hairless mice (HR-1, four mice per group). Then a sample solution (α-amino acid derivatives, and the like) was applied 100 μL at a time. This procedure was continued for three days. The following day, the TEWL value of the back was determined and the values of the four animals were averaged. Rough skin became worse as the ΔTEWL value increased.

[4] = test system: cheek of a panel of 20 women; assay: Sensory irritation tests; format: in vivo, human; details: for Evaluation (sensory irritation, class of average rating): 1 mL on cheek, evaluated for ten minutes, 20 women; for sensory irritation: summary of Table 4, β-alanine at 3%
Protocol: 1 mL of a control aqueous solution and the sample aqueous solution prepared in Example 1 were applied using a cotton swab to the left or right cheek, respectively, of a panel of 20 women, the irritating sensation was evaluated every 30 seconds for ten minutes beginning immediately after application, and a final evaluation was reported. The evaluation of the irritating sensation was based on the following four steps of rating criteria, the average rating was calculated, and the average was classified by the following criteria.
3: Discontinued because of extremely strong irritation, such as stinging sensation, burning sensation, tickling sensation, itching, and the like.
2: Intolerable strong irritation, such as stinging sensation, burning sensation, tickling sensation, itching, and the like.
1: Tolerable with only slight stinging sensation, burning sensation, tickling sensation, itching, and the like.
0: Not particularly irritating.
A: average rating of less than 0.2
B: average rating of 0.2 to less than 1.0
C: average rating of 1.0 to less than 2.0
D: average rating of 2.0 or greater

Compound: CNC(CO)C(=O)O (racemic) [N-methyl-DL-serine]
- Macroscopic evaluation (average of four animals) ([1]; sample 3 mass %): 1.2
- Parakeratosis value (average of four animals) ([1]; sample 3 mass %): 1.2
- parakeratosis value / parakeratosis-inhibiting effect [1]: reduced
- rough skin preventing effect, based on stratum corneum peeling and redness [1]: seen
- Replica assessment (average of n = 5) ([2]; sample 3 mass %): −0.7
- pore-shrinking effect [2]: seen
- ΔTEWL value ([3]; sample 3 mass %): 8.0
- ΔTEWL value compared with the control aqueous solution / rough skin preventing/ameliorating effect [3]: significantly lower
- Evaluation (sensory irritation, class of average rating) ([4]; sample 3 mass %): A (average rating of less than 0.2)
- sensory irritation [4]: no problems

Compound: C[C@@H](NS(=O)(=O)c1ccccc1)C(=O)O [N-benzenesulfonyl-D-alanine]
- Macroscopic evaluation (average of four animals) ([1]; sample 1.5 mass %): 1.3
- Parakeratosis value (average of four animals) ([1]; sample 1.5 mass %): 1.4
- Replica assessment (average of n = 5) ([2]; sample 1.5 mass %): −1.2
- ΔTEWL value ([3]; sample 1.5 mass %): 7.0
- Evaluation (sensory irritation, class of average rating) ([4]; sample 1.5 mass %): A (average rating of less than 0.2)

Compound: O=C(O)[C@@H](CO)NS(=O)(=O)c1ccccc1 [N-benzenesulfonyl-D-serine]
- Macroscopic evaluation (average of four animals) ([1]; sample 3 mass %): 1.3
- Parakeratosis value (average of four animals) ([1]; sample 3 mass %): 1.2
- parakeratosis value / parakeratosis-inhibiting effect [1]: reduced
- rough skin preventing effect, based on stratum corneum peeling and redness [1]: seen
- Replica assessment (average of n = 5) ([2]; sample 3 mass %): −1.1
- pore-shrinking effect [2]: seen
- ΔTEWL value ([3]; sample 3 mass %): 6.7
- ΔTEWL value compared with the control aqueous solution / rough skin preventing/ameliorating effect [3]: significantly lower
- Evaluation (sensory irritation, class of average rating) ([4]; sample 3 mass %): A (average rating of less than 0.2)
- sensory irritation [4]: no problems

Compound: C[C@H](NS(=O)(=O)c1ccccc1)C(=O)O [N-benzenesulfonyl-L-alanine]
- Macroscopic evaluation (average of four animals) ([1]; sample 1.5 mass %): 1.2
- Parakeratosis value (average of four animals) ([1]; sample 1.5 mass %): 1.3
- parakeratosis value / parakeratosis-inhibiting effect [1]: reduced
- rough skin preventing effect, based on stratum corneum peeling and redness [1]: seen
- Replica assessment (average of n = 5) ([2]; sample 1.5 mass %): −0.9
- pore-shrinking effect [2]: seen
- ΔTEWL value ([3]; sample 1.5 mass %): 7.2
- ΔTEWL value compared with the control aqueous solution / rough skin preventing/ameliorating effect [3]: significantly lower
- Evaluation (sensory irritation, class of average rating) ([4]; sample 1.5 mass %): A (average rating of less than 0.2)
- sensory irritation [4]: no problems

Compound: O=C(O)[C@H](CO)NS(=O)(=O)c1ccccc1 [N-benzenesulfonyl-L-serine]
- Macroscopic evaluation (average of four animals) ([1]; sample 3 mass %): 1.2
- Parakeratosis value (average of four animals) ([1]; sample 3 mass %): 1.2
- parakeratosis value / parakeratosis-inhibiting effect [1]: reduced
- rough skin preventing effect, based on stratum corneum peeling and redness [1]: seen
- Replica assessment (average of n = 5) ([2]; sample 3 mass %): −1.2
- pore-shrinking effect [2]: seen
- ΔTEWL value ([3]; sample 3 mass %): 6.8
- ΔTEWL value compared with the control aqueous solution / rough skin preventing/ameliorating effect [3]: significantly lower
- Evaluation (sensory irritation, class of average rating) ([4]; sample 3 mass %): A (average rating of less than 0.2)
- sensory irritation [4]: no problems

Compound: O=C(O)CNS(=O)(=O)c1ccccc1 [N-benzenesulfonyl-glycine]
- Macroscopic evaluation (average of four animals) ([1]; sample 3 mass %): 1.2
- Parakeratosis value (average of four animals) ([1]; sample 3 mass %): 1.2
- parakeratosis value / parakeratosis-inhibiting effect [1]: reduced
- rough skin preventing effect, based on stratum corneum peeling and redness [1]: seen
- Replica assessment (average of n = 5) ([2]; sample 3 mass %): −1.3
- pore-shrinking effect [2]: seen
- ΔTEWL value ([3]; sample 3 mass %): 6.9
- ΔTEWL value compared with the control aqueous solution / rough skin preventing/ameliorating effect [3]: significantly lower
- Evaluation (sensory irritation, class of average rating) ([4]; sample 3 mass %): A (average rating of less than 0.2)
- sensory irritation [4]: no problems

Compound: C[C@@H](NC(=O)OCc1ccccc1)C(=O)O [N-carbobenzoyloxy-D-alanine]
- Macroscopic evaluation (average of four animals) ([1]; sample 3 mass %): 1.2
- Parakeratosis value (average of four animals) ([1]; sample 3 mass %): 1.1
- parakeratosis value / parakeratosis-inhibiting effect [1]: reduced
- rough skin preventing effect, based on stratum corneum peeling and redness [1]: seen
- Replica assessment (average of n = 5) ([2]; sample 3 mass %): −0.8
- pore-shrinking effect [2]: seen
- ΔTEWL value ([3]; sample 3 mass %): 7.1
- ΔTEWL value compared with the control aqueous solution / rough skin preventing/ameliorating effect [3]: significantly lower
- Evaluation (sensory irritation, class of average rating) ([4]; sample 3 mass %): A (average rating of less than 0.2)
- sensory irritation [4]: no problems

Compound: O=C(N[C@H](CO)C(=O)O)OCc1ccccc1 [N-carbobenzoyloxy-D-serine]
- Macroscopic evaluation (average of four animals) ([1]; sample 3 mass %): 1.2
- Parakeratosis value (average of four animals) ([1]; sample 3 mass %): 1.2
- parakeratosis value / parakeratosis-inhibiting effect [1]: reduced
- rough skin preventing effect, based on stratum corneum peeling and redness [1]: seen
- Replica assessment (average of n = 5) ([2]; sample 3 mass %): −1.3
- pore-shrinking effect [2]: seen
- ΔTEWL value ([3]; sample 3 mass %): 6.8
- ΔTEWL value compared with the control aqueous solution / rough skin preventing/ameliorating effect [3]: significantly lower
- Evaluation (sensory irritation, class of average rating) ([4]; sample 3 mass %): A (average rating of less than 0.2)
- sensory irritation [4]: no problems

Compound: C[C@H](NC(=O)OCc1ccccc1)C(=O)O [N-carbobenzoyloxy-L-alanine]
- Macroscopic evaluation (average of four animals) ([1]; sample 3 mass %): 1.2
- Parakeratosis value (average of four animals) ([1]; sample 3 mass %): 1.3
- parakeratosis value / parakeratosis-inhibiting effect [1]: reduced
- rough skin preventing effect, based on stratum corneum peeling and redness [1]: seen
- Replica assessment (average of n = 5) ([2]; sample 3 mass %): −0.9
- pore-shrinking effect [2]: seen
- ΔTEWL value ([3]; sample 3 mass %): 6.9
- ΔTEWL value compared with the control aqueous solution / rough skin preventing/ameliorating effect [3]: significantly lower
- Evaluation (sensory irritation, class of average rating) ([4]; sample 3 mass %): A (average rating of less than 0.2)
- sensory irritation [4]: no problems

Compound: O=C(N[C@@H](CO)C(=O)O)OCc1ccccc1 [N-carbobenzoyloxy-L-serine]
- Macroscopic evaluation (average of four animals) ([1]; sample 3 mass %): 1.2
- Parakeratosis value (average of four animals) ([1]; sample 3 mass %): 1.1
- parakeratosis value / parakeratosis-inhibiting effect [1]: reduced
- rough skin preventing effect, based on stratum corneum peeling and redness [1]: seen
- Replica assessment (average of n = 5) ([2]; sample 3 mass %): −1.2
- pore-shrinking effect [2]: seen
- ΔTEWL value ([3]; sample 3 mass %): 6.7
- ΔTEWL value compared with the control aqueous solution / rough skin preventing/ameliorating effect [3]: significantly lower
- Evaluation (sensory irritation, class of average rating) ([4]; sample 3 mass %): A (average rating of less than 0.2)
- sensory irritation [4]: no problems

Compound: C[C@@H](NC1CCCCC1)C(=O)O [N-cyclohexyl-D-alanine]
- Macroscopic evaluation (average of four animals) ([1]; sample 3 mass %): 1.3
- Parakeratosis value (average of four animals) ([1]; sample 3 mass %): 1.4
- parakeratosis value / parakeratosis-inhibiting effect [1]: reduced
- rough skin preventing effect, based on stratum corneum peeling and redness [1]: seen
- Replica assessment (average of n = 5) ([2]; sample 3 mass %): −1.3
- pore-shrinking effect [2]: seen
- ΔTEWL value ([3]; sample 3 mass %): 6.9
- ΔTEWL value compared with the control aqueous solution / rough skin preventing/ameliorating effect [3]: significantly lower
- Evaluation (sensory irritation, class of average rating) ([4]; sample 3 mass %): A (average rating of less than 0.2)
- sensory irritation [4]: no problems

Compound: O=C(O)[C@@H](CO)NC1CCCCC1 [N-cyclohexyl-D-serine]
- Macroscopic evaluation (average of four animals) ([1]; sample 3 mass %): 1.3
- Parakeratosis value (average of four animals) ([1]; sample 3 mass %): 1.2
- parakeratosis value / parakeratosis-inhibiting effect [1]: reduced
- rough skin preventing effect, based on stratum corneum peeling and redness [1]: seen
- Replica assessment (average of n = 5) ([2]; sample 3 mass %): −1.3
- pore-shrinking effect [2]: seen
- ΔTEWL value ([3]; sample 3 mass %): 6.8
- ΔTEWL value compared with the control aqueous solution / rough skin preventing/ameliorating effect [3]: significantly lower
- Evaluation (sensory irritation, class of average rating) ([4]; sample 3 mass %): A (average rating of less than 0.2)
- sensory irritation [4]: no problems
